Test results taken from patent US20110071174A1, “SUBSTITUTED QUINAZOLINES” (Shire LLC, priority 2008, published 2011).

Assays:
[1] = tested on: human phosphodiesterase III (PDE III); assay: PDE III inhibition; assay type: biochemical; settings: more potent than anagrelide
Text: In early volunteer trials, the most frequently reported adverse effects AEs other than headache were palpitations, postural dizziness and nausea. During patient studies, the most frequently reported drug-related AEs were headache, palpitations, oedema/fluid retention, nausea/vomiting, diarrhea, dizziness and abdominal pain. These effects are all likely to arise from the secondary, cardiovascular pharmacology associated with anagrelide resulting from its inhibitory effects on human phosphodiesterase III (PDE III). […] Inhibition of myocardial PDE III leads to positive inotropy (increasing of the force of contractions of the heart), increased chronotropy (increase in heart rate), and peripheral vasodilatation. Such cardiovascular manifestations of this inhibition are typically seen with the classical positive inotropes, milrinone and enoximone, and exploited in the short-term acute treatment of congestive heart failure. However, in the treatment of a so-called silent disease (i.e., asymptomatic) such as ET, the cardiovascular side-effects of palpitations and tachycardia associated with anagrelide limit its utility and a significant proportion of patients—reportedly between 25 and 50%—fail to tolerate the drug during long term treatment.

[2] = Pharmacokinetics and exposure in humans; assay type: in vivo, human; settings: typical exposures, greater than anagrelide
Text: The PDE III inhibitory properties of anagrelide are quite distinct from its platelet lowering anti-megakaryocytic effects. Indeed studies have shown no correlation between potency as a PDE III inhibitor and anti-megakaryocytic effects for anagrelide and its principal pharmacologically active metabolite, 3-hydroxyanagrelide (3-OH anagrelide or 3-HA, formerly known as SPD604 or BCH24426). […] Anagrelide's active metabolite, 3-HA, is present in vivo in amounts greatly exceeding those of the parent drug with typical exposures being 2-3 fold greater. Thus by implication 3-OH anagrelide is likely to be a major contributor to the pharmacological actions of the drug.
In addition to the unwanted cardiovascular effects associated with PDE III inhibition, the consequent elevation of cAMP can result in an anti-aggregatory effect. While initially this property may appear to be beneficial in essential thrombocythemia patients predisposed to greater thrombotic risk, such anti-platelet effects, in excess, could have haemorrhagic consequences and on balance may not be desirable. […]

[3] = tested on: TPO-induced megakaryocytopoiesis; settings: cited from earlier work
[4] = cited from earlier work
[5] = tested on: erythroid or myelomonocytic differentiation; settings: stimulated by erythropoietin or granulocyte-macrophage colony-stimulating factor; cited from earlier work
[6] = molecular target: human phosphodiesterase III (PDE III); settings: cited from earlier work

| SMILES | potency as PDE III inhibitor relative to anagrelide [1] | exposure in vivo relative to parent drug [2] | potency in inhibition of megakaryocytopoiesis relative to parent drug ([3]; compared with anagrelide) | half-life ([4]; typical) [h] | IC50 ([3]; estimated, in vitro human megakaryocytopoiesis, read-out: IC50 for inhibition of TPO-induced megakaryocytopoiesis) [nM] | effect on erythroid or myelomonocytic differentiation [5] | IC50 [6] [nM] | first pass effect ([4]; in vivo) [%] |
| --- | --- | --- | --- | --- | --- | --- | --- | --- |
| O=C1NC2=Nc3ccc(Cl)c(Cl)c3CN2C1O (stereo not drawn) [3-hydroxyanagrelide] | over 40 fold | 2-3 fold | no more potent than the parent drug | 2.5 | – | – | – | – |
| O=C1CN2Cc3c(ccc(Cl)c3Cl)N=C2N1 [Anagrelide, 6,7-dichloro-1,5-dihydroimidazo[2,1-b]-quinazolin-2(3H)-one] | – | – | – | – | ~26 | does not affect | ~29 | > 50 |
| Cc1[nH]c(=O)c(C#N)cc1-c1ccncc1 [milrinone] | – | – | – | – | – | – | 170 to 350 | – |
